Measurements as given in US20250281492A1, “NEW CRYSTALLINE FORMS OF SALT OF 7-CYCLOPENTYL-2-(5-PIPERAZIN-1-YL-PYRIDIN-2-YLAMINO)-7H-PYRROLO[2,3-D]PYRIMIDINE -6-CARBOXYLIC ACID DIMETHYLAMIDE” (priority 2019, published 2025).

What was measured:
Type in all cases: physicochemical
[1] = Conversion to dihydrate Modification HB (water activity, suspension equilibration)
Thermogravimetry = assay: Thermogravimetry
[2] = DVS (dynamic vapor sorption) sorption/desorption isotherms; details: for Desorption / Sorption: DVS, 25 degrees Celsius; for XRPD after DVS: after DVS cycle at 25 degrees Celsius; for hygroscopicity classification: from DVS data at 25° C.
Excerpt: Anhydrous modifications A and E of ribociclib succinate were submitted to DVS analysis. The results are reported in FIGS. 14 and 15 and in Table 12.

[3] = Hydrate formation: exposure at ambient temperature at various relative humidity in a desiccator
Excerpt: Aliquots from ribociclib succinate Modification A were exposed in a desiccator with saturated solution of inorganic salt or drying agent to provide a range of various relative humidities.

[4] = Long term stability studies, exposure to high relative humidity; details: 75% RH at 40 or 50° C., less protective packaging material
[5] = heating rate 10 degrees Celsius per minute
[6] = relative humidity 10%, succinate
[7] = relative humidity 20%, succinate
[8] = relative humidity 30%, succinate
[9] = relative humidity 40%, succinate
[10] = relative humidity 50%, succinate
[11] = relative humidity 60%, succinate
[12] = relative humidity 70%, succinate
[13] = relative humidity 80%, succinate
[14] = relative humidity 90%, succinate
[15] = relative humidity 95%, succinate

loss on drying (Thermogravimetry; from 30 to 180° C.)	decomposition temperature (Thermogravimetry; [5])	Desorption ([2]; relative humidity 0%) [wt %]	Sorption ([2]; relative humidity 0%) [wt %]	Desorption [2, 6] [wt %]	Sorption [2, 6] [wt %]	Desorption ([2]; relative humidity 20%) [wt %]	Sorption [2, 7] [wt %]	Desorption ([2]; relative humidity 30%) [wt %]	Sorption [2, 8] [wt %]	Desorption ([2]; relative humidity 40%) [wt %]	Sorption [2, 9] [wt %]	Sorption [2, 10] [wt %]	Sorption [2, 11] [wt %]	Sorption [2, 12] [wt %]	Sorption [2, 13] [wt %]	Sorption [2, 14] [wt %]	Sorption [2, 15] [wt %]	XRPD after DVS [2]	hygroscopicity classification ([2]; succinate)	SMILES	other results
less than 0.05%	about 200 °C	0.0	0.0	0.0	0.0	0.1	0.0	0.1	0.1	0.1	0.1	0.1	0.1	0.1	0.1	0.1	0.1	No change	not hygroscopic	CN(C)C(=O)c1cc2cnc(Nc3ccc(N4CCNCC4)cn3)nc2n1C1CCCC1.O=C(O)CCC(=O)O [Modification E, 7-Cyclopentyl-2-(5-piperazin-1-yl-pyridin-2-ylamino)-7H-pyrrolo[2,3-d]pyrimidine-6-carboxylic acid dimethylamide succinate]	water activity (aH2O) at which Modification HB is obtained ([1]; suspension equilibration at 25° C.): ≥ 0.68; max water uptake (mass change) ([2]; DVS cycle at 25° C.): 0.1%
																				CN(C)C(=O)c1cc2cnc(Nc3ccc(N4CCNCC4)cn3)nc2n1C1CCCC1 [Modification F]	loss on drying (Thermogravimetry; from 30 to 140° C.): less than 0.0%
less than 0.05%	about 200 °C	0.0	0.0	0.1	0.1	0.1	0.1	0.1	0.2	0.1	0.2	0.2	0.2	0.3	0.3	0.5	0.7	No change	slightly hygroscopic	CN(C)C(=O)c1cc2cnc(Nc3ccc(N4CCNCC4)cn3)nc2n1C1CCCC1.O=C(O)CCC(=O)O [Modification A, 7-Cyclopentyl-2-(5-piperazin-1-yl-pyridin-2-ylamino)-7H-pyrrolo[2,3-d]pyrimidine-6-carboxylic acid dimethylamide succinate, reference compound]	loss on drying by thermogravimetry ([3]; after 10 days at 92% RH, ambient temperature): 3.9%; physical stability (XRPD) ([3]; exposed to 92% RH at ambient temperature for 1 day, peaks assigned to Modification HA): some additional peaks at about 4.7, 6.4, 12.0 and 13.0 degree 2θ can be detected; conversion (XRPD) ([3]; exposed to 92% RH at ambient temperature for 10 days): complete conversion; physical stability (XRPD) ([3]; exposed up to 80% RH at ambient temperature for 1 day): physically stable; loss on drying by thermogravimetry ([3]; starting material before exposure): lower than 0.05%; behaviour at high relative humidity ([3]; sufficient amount of time at relative humidity close or higher than 92%): starts to deliquesce; water activity for conversion into dihydrate Modification HB ([1]; conversion observed in bulk at 40° C./75% RH): higher than 70 % relative humidity (RH); physical stability (XRPD) [4]: physically unstable; maximum mass change compared to the dry state ([2]; exposed to 92% HR., 25° C.): about 0.7%; water uptake in comparison to the dry state (0% RH) ([2]; exposed to 95% RH in DVS cycle at 25° C.): about 0.7%
	about 200 °C	0.0	0.0			1.7		1.9		2.0								No change		CN(C)C(=O)c1cc2cnc(Nc3ccc(N4CCNCC4)cn3)nc2n1C1CCCC1.O.O.O=C(O)CCC(=O)O [Modification HB]	mass loss on loss of water (Thermogravimetry; at about 120° C.): about 5.8%; temperature of loss of water (Thermogravimetry; [5]): about 120 °C; Desorption ([2]; relative humidity 10%): 1.2 wt %; Sorption ([2]; relative humidity 10%): 0.8 wt %; Sorption ([2]; relative humidity 20%): 1.3 wt %; Sorption ([2]; relative humidity 30%): 1.7 wt %; Sorption ([2]; relative humidity 40%): 1.9 wt %; Sorption ([2]; relative humidity 50%): 2.1 wt %; Sorption ([2]; relative humidity 60%): 2.2 wt %; Sorption ([2]; relative humidity 70%): 2.3 wt %; Sorption ([2]; relative humidity 80%): 2.4 wt %; Sorption ([2]; relative humidity 90%): 2.5 wt %; Sorption ([2]; relative humidity 95%): 2.5 wt %
